This note sets out measurements from US9884063B2, “Amido-substituted azole compounds” (Bayer Pharma Aktiengesellschaft, priority 2014, dated 2018).

Counter-ions that a name gives are not always drawn. A value given as a limit tells only on which side of the number the result lay.

The target of one experiment is T1, TNKS1 (Homo sapiens, UniProt O95271).
T1 sequence (O95271 1-1327): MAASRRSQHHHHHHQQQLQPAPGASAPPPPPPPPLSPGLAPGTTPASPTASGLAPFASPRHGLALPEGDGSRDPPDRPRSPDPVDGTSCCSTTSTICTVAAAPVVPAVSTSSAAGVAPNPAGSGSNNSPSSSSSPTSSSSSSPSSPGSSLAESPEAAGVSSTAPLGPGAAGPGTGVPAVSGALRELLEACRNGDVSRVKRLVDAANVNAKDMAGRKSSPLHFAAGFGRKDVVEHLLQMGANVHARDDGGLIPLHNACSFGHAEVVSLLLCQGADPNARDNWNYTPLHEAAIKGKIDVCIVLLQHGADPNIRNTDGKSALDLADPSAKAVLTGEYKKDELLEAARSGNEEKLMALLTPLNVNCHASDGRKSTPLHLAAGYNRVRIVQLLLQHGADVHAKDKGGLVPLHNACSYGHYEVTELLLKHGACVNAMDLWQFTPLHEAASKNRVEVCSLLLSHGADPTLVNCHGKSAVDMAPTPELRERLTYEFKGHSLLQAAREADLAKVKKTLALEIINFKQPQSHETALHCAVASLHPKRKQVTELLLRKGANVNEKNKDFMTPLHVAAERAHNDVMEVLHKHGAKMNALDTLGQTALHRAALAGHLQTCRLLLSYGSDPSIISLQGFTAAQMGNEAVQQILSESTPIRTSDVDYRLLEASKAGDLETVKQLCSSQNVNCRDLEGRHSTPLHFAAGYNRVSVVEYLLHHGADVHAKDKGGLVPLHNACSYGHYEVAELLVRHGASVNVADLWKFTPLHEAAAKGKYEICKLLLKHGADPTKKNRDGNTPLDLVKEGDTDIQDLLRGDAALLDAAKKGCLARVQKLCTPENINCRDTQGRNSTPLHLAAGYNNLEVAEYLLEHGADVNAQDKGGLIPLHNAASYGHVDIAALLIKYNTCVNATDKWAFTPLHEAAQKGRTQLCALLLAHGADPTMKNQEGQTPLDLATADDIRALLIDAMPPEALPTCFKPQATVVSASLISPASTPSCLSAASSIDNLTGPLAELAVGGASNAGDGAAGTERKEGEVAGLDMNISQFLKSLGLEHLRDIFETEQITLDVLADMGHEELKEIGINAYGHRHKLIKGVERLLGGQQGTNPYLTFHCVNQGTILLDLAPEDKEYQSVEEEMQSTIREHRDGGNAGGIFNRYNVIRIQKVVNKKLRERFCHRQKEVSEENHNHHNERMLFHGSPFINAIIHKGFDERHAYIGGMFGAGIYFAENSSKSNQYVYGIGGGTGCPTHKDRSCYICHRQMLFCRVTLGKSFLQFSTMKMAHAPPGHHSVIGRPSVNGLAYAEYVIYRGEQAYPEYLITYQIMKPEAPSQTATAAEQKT
Description: Modified TNKS1 Assay 3 (BPS kit #80573, biotin-NAD+, 96 well). Type of experiment: biochemical. To be noted: human TNKS1, BPS kit #80573, 96 well. An outline of the steps:
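Chemiluminescent assay of TNKS1-catalysed ribosylation of a protein substrate with biotin-labelled NAD+, detected via streptavidin-HRP; run per kit protocol. Inhibition lowers the signal, and IC50 is the compound concentration halving the normalised readout.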

Experiment [1] concerns wildtype Wnt signaling cascade. The experiment is described as follows: HEK293 TOP Assay (Super TopFlash luciferase reporter, Wnt-3a stimulated). Particulars: Homo sapiens. The experiment is classed as cell-based. The gist of the method: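 Compounds (50 μM down to 15 nM, 3.16-fold steps, in CAFTY buffer pH 7.4, 2 mM Ca2+, 0.01% BSA) tested in parallel on TOP and FOP HEK293 reporter lines to define selective wildtype Wnt inhibition. Pathway driven by recombinant human Wnt-3a applied at 2500–5 ng/ml in two-fold dilutions.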

The test system of experiment [2] is HEK293 FOP control reporter cell line. Description: HEK293 FOP Assay (FOP control vector luciferase reporter). The experiment is classed as cell-based. Particulars: Homo sapiens. An outline of the steps: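 Compound series 50 μM to 15 nM, 3.16-fold steps, were diluted in CAFTY buffer (pH 7.4, 2 mM Ca2+, 0.01% BSA) and tested alongside the TOP reporter line. Human Wnt-3a was added at 2500–5 ng/ml in two-fold steps. The control HEK293 line stably holds an FOP vector whose TCF elements are randomized and non-functional.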
In general terms: A reporter such as luciferase makes a cellular process visible.

Setting [3] is: HEK293, 16 h, HEK293 TOP reporter cell line, Wnt-3a at EC50, 16 hours incubation, compound dilution series 50 μM to 15 nM.
The mark [4] stands for this setting: HEK293, 16 h, HEK293 TOP reporter cells, Wnt3a at EC50, 16 hours, luciferase.
Setting [5] is: HEK293 FOP control reporter cell line, 16 hours incubation, compound dilution series 50 μM to 15 nM.
The mark [6] stands for this setting: HEK293 FOP control reporter cells, 16 hours, luciferase, dilution series from 50 μM.

For `COC(=O)c1nc[nH]c1C(=O)Nc1ccc(NC(=O)c2ccc(F)cc2Cl)cc1` [Example 13, Methyl 5-({4-[(2-chloro-4-fluorobenzoyl)amino]phenyl}carbamoyl)-1H-imidazole-4-carboxylate], the IC50 against TNKS1 is 60 nM; in experiment [1] (setting [3]), 130 nM; in experiment [1] (setting [4]), 130 nM; in experiment [2] (setting [5]) it was 25000 nM; in experiment [2] (setting [6]) it was 25000 nM.

`CCN1CCC[C@H]1CNC(=O)c1nc[nH]c1C(=O)Nc1ccc(NC(=O)c2ccc(F)cc2Cl)cc1` [Example 404, N^5-{4-[(2-chloro-4-fluorobenzoyl)amino]phenyl}-N^4-{[(2S)-1-ethylpyrrolidin-2-yl]methyl}-1H-imidazole-4,5-dicarboxamide]: the IC50 at TNKS1 came to 1 nM; in experiment [1] (setting [3]) it was 90 nM; in experiment [2] (setting [5]), 29000 nM.

As to `CC(C)[C@@H](C)NC(=O)c1[nH]cnc1C(=O)Nc1ccc(NC(=O)c2ccc(F)cc2Cl)cc1` [Example 134, N^4-{4-[(2-chloro-4-fluorobenzoyl)amino]phenyl}-N^5-[(2R)-3-methylbutan-2-yl]-1H-imidazole-4,5-dicarboxamide], the figures for the IC50 (at TNKS1; in experiment [1] (setting [3]); in experiment [2] (setting [5])) were 360 nM, 640 nM and 6300 nM, respectively.

Consider `O=C(Nc1ccc(NC(=O)c2nc[nH]c2C(=O)NCCN2CCC(F)(F)CC2)cc1)c1ccc(F)cc1Br` [Example 215, N^4-{4-[(2-bromo-4-fluorobenzoyl)amino]phenyl}-N^5-[2-(4,4-difluoropiperidin-1-yl)ethyl]-1H-imidazole-4,5-dicarboxamide], for which the IC50 at TNKS1 was found to be 210 nM; in experiment [1] (setting [3]), 400 nM; in experiment [2] (setting [5]), 29500 nM.

Consider `O=C(Nc1ccc(NC(=O)c2ocnc2C(=O)NCCN2CC[C@H](F)C2)cc1)c1ccc(F)cc1Cl` [Example 221, N^5-{4-[(2-chloro-4-fluorobenzoyl)amino]phenyl}-N^4-{2-[(3S)-3-fluoropyrrolidin-1-yl]ethyl}-1,3-oxazole-4,5-dicarboxamide], for which the IC50 was > 500 nM at TNKS1, 820 nM in experiment [1] (setting [3]) and 12000 nM in experiment [2] (setting [5]).

As to `O=C(Nc1ccc(NC(=O)c2nc[nH]c2C(=O)NCCN2CCC[C@@H](F)C2)cc1)c1ccc(F)cc1Cl` [Example 277, N^4-{4-[(2-chloro-4-fluorobenzoyl)amino]phenyl}-N^5-{2-[(3R)-3-fluoropiperidin-1-yl]ethyl}-1H-imidazole-4,5-dicarboxamide], the IC50 against TNKS1 is 70 nM; in experiment [1] (setting [3]), 120 nM; in experiment [2] (setting [5]), 36000 nM.

As for `O=C(Nc1ccc(NC(=O)c2[nH]cnc2C(=O)NC2CC2)cc1)c1ccc(F)cc1Cl` [Example 45, N^5-{4-[(2-chloro-4-fluorobenzoyl)amino]phenyl}-N^4-cyclopropyl-1H-imidazole-4,5-dicarboxamide], the IC50 against TNKS1 was found to be 70 nM; in experiment [1] (setting [3]) it was 190 nM; in experiment [2] (setting [5]), 40000 nM.

As to `O=C(Nc1ccc(NC(=O)c2nc[nH]c2C(=O)N[C@@H]2CCNC2)cc1)c1ccc(F)cc1Cl` [Example 282, N^4-{4-[(2-chloro-4-fluorobenzoyl)amino]phenyl}-N^5-[(3R)-pyrrolidin-3-yl]-1H-imidazole-4,5-dicarboxamide hydrochloride salt], the IC50 against TNKS1 stood at 60 nM; in experiment [1] (HEK293 TOP reporter cell line, Wnt-3a at EC50, 16 hours incubation, compound dilution series 50 μM to 15 nM), 970 nM; in experiment [2] (HEK293, 16 h, HEK293 FOP control reporter cell line, 16 hours incubation, compound dilution series 50 μM to 15 nM), 50000 nM.

Consider `CN(C)CCNC(=O)c1ncoc1C(=O)Nc1ccc(NC(=O)c2ccc(F)cc2Cl)cc1` [Example 31, N^5-{4-[(2-chloro-4-fluorobenzoyl)amino]phenyl}-N^4-[2-(dimethylamino)ethyl]-1,3-oxazole-4,5-dicarboxamide], for which the IC50 on TNKS1 was 130 nM; in experiment [1] (setting [3]), 1600 nM; in experiment [1] (setting [4]), 1600 nM; in experiment [2] (setting [6]), ≥ 50000 nM.

With `COc1cc(NC(=O)c2[nH]cnc2C(=O)NCCN2CCCCC2)ccc1NC(=O)c1ccccc1Cl` [Example 101, N^5-{4-[(2-chlorobenzoyl)amino]-3-methoxyphenyl}-N^4-[2-(piperidin-1-yl)ethyl]-1H-imidazole-4,5-dicarboxamide], the IC50 at TNKS1 came to 40 nM; in experiment [1] (setting [3]), 220 nM; in experiment [2] (setting [5]) it was 29000 nM.

For `O=C(Nc1ccc(NC(=O)c2nc[nH]c2C(=O)NCCN2CCOCC2)cc1)c1ccc(F)cc1Cl` [Example 227, N^4-{4-[(2-chloro-4-fluorobenzoyl)amino]phenyl}-N^5-[2-(morpholin-4-yl)ethyl]-1H-imidazole-4,5-dicarboxamide], the IC50 against TNKS1 came out at 200 nM; in experiment [1] (setting [3]) it was 120 nM; in experiment [2] (setting [5]), 23000 nM.

Consider `O=C(Nc1ccc(NC(=O)c2nc[nH]c2C(=O)NCCN2CCC(F)(F)CC2)cc1)c1ccccc1Cl` [Example 214, N^4-{4-[(2-chlorobenzoyl)amino]phenyl}-N^5-[2-(4,4-difluoropiperidin-1-yl)ethyl]-1H-imidazole-4,5-dicarboxamide], for which the IC50 at TNKS1 was determined as 200 nM; in experiment [1] (setting [3]) it was 1250 nM; in experiment [2] (setting [5]) it was 22000 nM.

In the case of `O=C(Nc1ccc(NC(=O)c2nc[nH]c2C(=O)NC2CCOCC2)cc1)c1ccc(F)cc1Cl` [Example 234, N^4-{4-[(2-chloro-4-fluorobenzoyl)amino]phenyl}-N^5-(tetrahydro-2H-pyran-4-yl)-1H-imidazole-4,5-dicarboxamide], the IC50 at TNKS1 worked out at 220 nM; in experiment [1] (setting [3]), 460 nM; in experiment [2] (setting [5]), 16000 nM.

`C[C@H]1CCCCN1CCNC(=O)c1[nH]cnc1C(=O)Nc1ccc(NC(=O)c2ccc(F)cc2Cl)cc1` [Example 266, N^4-{4-[(2-chloro-4-fluorobenzoyl)amino]phenyl}-N^5-{2-[(25)-2-methylpiperidin-1-yl]ethyl}-1H-imidazole-4,5-dicarboxamide formic acid salt]: the IC50 stood at 20 nM against TNKS1, 30 nM in experiment [1] (setting [3]) and 20000 nM in experiment [2] (setting [5]).

Turning to `O=C(Nc1ccc(NC(=O)c2ocnc2C(=O)NCCN2CC[C@@H](F)C2)cc1)c1ccc(F)cc1Cl` [Example 222, N^5-{4-[(2-chloro-4-fluorobenzoyl)amino]phenyl}-N^4-{2-[(3R)-3-fluoropyrrolidin-1-yl]ethyl}-1,3-oxazole-4,5-dicarboxamide], the IC50 amounted to 220 nM on TNKS1, 670 nM in experiment [1] (setting [3]) and 23000 nM in experiment [2] (setting [5]).

On to `CC(CN1CCOCC1)NC(=O)c1[nH]cnc1C(=O)Nc1ccc(NC(=O)c2ccc(F)cc2Cl)cc1` (centres unmarked) [Example 268, N^4-{4-[(2-chloro-4-fluorobenzoyl)amino]phenyl}-N^5-[1-(morpholin-4-yl)propan-2-yl]-1H-imidazole-4,5-dicarboxamide], for which the results for the IC50 (against TNKS1; in experiment [1] (setting [3]); in experiment [2] (setting [5])) were 110 nM, 60 nM and 41000 nM, respectively.

In the case of `CCNC(=O)c1[nH]cnc1C(=O)Nc1ccc(NC(=O)c2ccc(F)cc2Cl)cc1` [Example 138, N^4-{4-[(2-chloro-4-fluorobenzoyl)amino]phenyl}-N^5-ethyl-1H-imidazole-4,5-dicarboxamide], the IC50 (on TNKS1; in experiment [1] (setting [3])) was 260 nM in each case.

For orientation: IC50 means the concentration that inhibits the measured activity by half.
